Reference: the supplement of paper PMC10307832

What was measured:
Assay in all cases: relative viability (nuclei count vs DMSO), 5 days (fraction); higher = more cells survive
PC-14 = system: PC-14
How it was run: (§1)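 One day after seeding in 1536-well plates, lung cancer cell lines were dosed by pin tool. Dosing was either single-drug or a fixed anchor-drug dose plus five library-drug doses (not always all listed) in √10 steps. After 5 days, nuclei were stained in one fix-and-stain step and counted on 4× images, and relative viability is the nuclei count of treated wells over that of vehicle wells, given as the median of duplicate plates.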

NCI-H1355 = system: NCI-H1355
How it was run: as §1

A-427 = system: A-427
How it was run: as §1

SK-MES-1 = system: SK-MES-1
How it was run: as §1

NCI-H2087 = system: NCI-H2087
How it was run: as §1

NCI-H1395 = system: NCI-H1395
How it was run: as §1

PC-3 [JPC-3] = system: PC-3 [JPC-3]
How it was run: as §1

NCI-H1792 = system: NCI-H1792
How it was run: as §1

NCI-H322M = system: NCI-H322M
How it was run: as §1

NCI-H1666 = system: NCI-H1666
How it was run: as §1

LCLC-97TM1 = system: LCLC-97TM1
How it was run: as §1

NCI-H1915 = system: NCI-H1915
How it was run: as §1

NCI-H1651 = system: NCI-H1651
How it was run: as §1

LK-2 = system: LK-2
How it was run: as §1

NCI-H2085 = system: NCI-H2085
How it was run: as §1

H3255 = system: H3255
How it was run: as §1

ABC-1 = system: ABC-1
How it was run: as §1

NCI-H661 = system: NCI-H661
How it was run: as §1

NCI-H838 = system: NCI-H838
How it was run: as §1

UMC-11 = system: UMC-11
How it was run: as §1

NCI-H358 = system: NCI-H358
How it was run: as §1

CAL-12T = system: CAL-12T
How it was run: as §1

Compound: Cc1cnc(-c2cnc(NCCNc3ccc(C#N)cn3)nc2-c2ccc(Cl)cc2Cl)[nH]1 + Nc1ncn([C@H]2C[C@H](O)[C@@H](CO)O2)c(=O)n1 [Decitabine] (partner 2 µM)
- relative viability (PC-14; first compound 0.08 µM): 0.232
- relative viability (PC-14; first compound 0.253 µM): 0.171
- relative viability (PC-14; first compound 0.8 µM): 0.217
- relative viability (PC-14; first compound 2.53 µM): 0.234
- relative viability (NCI-H1355; first compound 0.08 µM): 0.354
- relative viability (NCI-H1355; first compound 0.253 µM): 0.316
- relative viability (NCI-H1355; first compound 0.8 µM): 0.36
- relative viability (NCI-H1355; first compound 2.53 µM): 0.371
- relative viability (A-427; first compound 0.08 µM): 0.535
- relative viability (A-427; first compound 0.253 µM): 0.526
- relative viability (A-427; first compound 0.8 µM): 0.61
- relative viability (A-427; first compound 2.53 µM): 0.618
- relative viability (SK-MES-1; first compound 0.08 µM): 0.378
- relative viability (SK-MES-1; first compound 0.253 µM): 0.35
- relative viability (SK-MES-1; first compound 0.8 µM): 0.393
- relative viability (SK-MES-1; first compound 2.53 µM): 0.406
- relative viability (NCI-H2087; first compound 0.08 µM): 0.282
- relative viability (NCI-H2087; first compound 0.8 µM): 0.286
- relative viability (NCI-H2087; first compound 2.53 µM): 0.204
- relative viability (NCI-H1395; first compound 0.08 µM): 0.774
- relative viability (NCI-H1395; first compound 0.253 µM): 0.714
- relative viability (NCI-H1395; first compound 0.8 µM): 0.737
- relative viability (NCI-H1395; first compound 2.53 µM): 0.757
- relative viability (PC-3 [JPC-3]; first compound 0.08 µM): 0.777
- relative viability (PC-3 [JPC-3]; first compound 0.253 µM): 0.825
- relative viability (PC-3 [JPC-3]; first compound 0.8 µM): 0.785
- relative viability (PC-3 [JPC-3]; first compound 2.53 µM): 0.791
- relative viability (NCI-H1792; first compound 0.08 µM): 0.564
- relative viability (NCI-H1792; first compound 0.253 µM): 0.476
- relative viability (NCI-H1792; first compound 0.8 µM): 0.542
- relative viability (NCI-H1792; first compound 2.53 µM): 0.469
- relative viability (NCI-H322M; first compound 0.08 µM): 0.654
- relative viability (NCI-H322M; first compound 0.253 µM): 0.655
- relative viability (NCI-H322M; first compound 0.8 µM): 0.567
- relative viability (NCI-H322M; first compound 2.53 µM): 0.726
- relative viability (NCI-H1666; first compound 0.08 µM): 0.759
- relative viability (NCI-H1666; first compound 0.253 µM): 0.713
- relative viability (NCI-H1666; first compound 0.8 µM): 0.618
- relative viability (NCI-H1666; first compound 2.53 µM): 0.844
- relative viability (LCLC-97TM1; first compound 0.08 µM): 0.213
- relative viability (LCLC-97TM1; first compound 0.253 µM): 0.248
- relative viability (LCLC-97TM1; first compound 0.8 µM): 0.235
- relative viability (LCLC-97TM1; first compound 2.53 µM): 0.227
- relative viability (NCI-H1915; first compound 0.08 µM): 0.275
- relative viability (NCI-H1915; first compound 0.8 µM): 0.286
- relative viability (NCI-H1915; first compound 2.53 µM): 0.264
- relative viability (NCI-H1651; first compound 0.08 µM): 0.626
- relative viability (NCI-H1651; first compound 0.253 µM): 0.523
- relative viability (NCI-H1651; first compound 0.8 µM): 0.587
- relative viability (NCI-H1651; first compound 2.53 µM): 0.625
- relative viability (LK-2; first compound 0.08 µM): 0.27
- relative viability (LK-2; first compound 0.253 µM): 0.275
- relative viability (LK-2; first compound 0.8 µM): 0.323
- relative viability (LK-2; first compound 2.53 µM): 0.395
- relative viability (NCI-H2085; first compound 0.08 µM): 0.535
- relative viability (NCI-H2085; first compound 0.253 µM): 0.554
- relative viability (NCI-H2085; first compound 0.8 µM): 0.542
- relative viability (NCI-H2085; first compound 2.53 µM): 0.572
- relative viability (H3255; first compound 0.08 µM): 0.765
- relative viability (H3255; first compound 0.253 µM): 0.531
- relative viability (H3255; first compound 0.8 µM): 0.551
- relative viability (H3255; first compound 2.53 µM): 0.567
- relative viability (ABC-1; first compound 0.08 µM): 1.27
- relative viability (ABC-1; first compound 0.253 µM): 0.871
- relative viability (ABC-1; first compound 0.8 µM): 1.08
- relative viability (ABC-1; first compound 2.53 µM): 0.918
- relative viability (NCI-H661; first compound 0.08 µM): 0.609
- relative viability (NCI-H661; first compound 0.253 µM): 0.545
- relative viability (NCI-H661; first compound 0.8 µM): 0.569
- relative viability (NCI-H661; first compound 2.53 µM): 0.551
- relative viability (NCI-H838; first compound 0.08 µM): 0.503
- relative viability (NCI-H838; first compound 0.253 µM): 0.506
- relative viability (NCI-H838; first compound 0.8 µM): 0.47
- relative viability (NCI-H838; first compound 2.53 µM): 0.46
- relative viability (UMC-11; first compound 0.08 µM): 0.727
- relative viability (UMC-11; first compound 0.253 µM): 0.533
- relative viability (UMC-11; first compound 0.8 µM): 0.314
- relative viability (UMC-11; first compound 2.53 µM): 0.668
- relative viability (NCI-H358; first compound 0.08 µM): 0.234
- relative viability (NCI-H358; first compound 0.253 µM): 0.208
- relative viability (NCI-H358; first compound 0.8 µM): 0.248
- relative viability (NCI-H358; first compound 2.53 µM): 0.213

Compound: Cc1cnc(-c2cnc(NCCNc3ccc(C#N)cn3)nc2-c2ccc(Cl)cc2Cl)[nH]1 + NC(=O)Nc1cc(-c2cccc(F)c2)sc1C(=O)N[C@H]1CCCNC1 [AZD7762] (partner 0.2 µM)
- relative viability (PC-14; first compound 0.08 µM): 0.347
- relative viability (PC-14; first compound 0.253 µM): 0.316
- relative viability (PC-14; first compound 0.8 µM): 0.365
- relative viability (PC-14; first compound 2.53 µM): 0.392
- relative viability (NCI-H1355; first compound 0.08 µM): 0.831
- relative viability (NCI-H1355; first compound 0.253 µM): 0.624
- relative viability (NCI-H1355; first compound 0.8 µM): 0.691
- relative viability (NCI-H1355; first compound 2.53 µM): 0.577
- relative viability (A-427; first compound 0.08 µM): 0.838
- relative viability (A-427; first compound 0.253 µM): 0.602
- relative viability (A-427; first compound 0.8 µM): 0.692
- relative viability (A-427; first compound 2.53 µM): 0.714
- relative viability (NCI-H2087; first compound 0.08 µM): 1.3
- relative viability (NCI-H2087; first compound 0.8 µM): 1.3
- relative viability (NCI-H2087; first compound 2.53 µM): 1.17
- relative viability (NCI-H1395; first compound 0.08 µM): 0.425
- relative viability (NCI-H1395; first compound 0.253 µM): 0.43
- relative viability (NCI-H1395; first compound 0.8 µM): 0.4
- relative viability (NCI-H1395; first compound 2.53 µM): 0.374
- relative viability (PC-3 [JPC-3]; first compound 0.08 µM): 0.805
- relative viability (PC-3 [JPC-3]; first compound 0.253 µM): 0.761
- relative viability (PC-3 [JPC-3]; first compound 0.8 µM): 0.799
- relative viability (PC-3 [JPC-3]; first compound 2.53 µM): 0.725
- relative viability (NCI-H1792; first compound 0.08 µM): 0.8
- relative viability (NCI-H1792; first compound 0.253 µM): 0.611
- relative viability (NCI-H1792; first compound 0.8 µM): 0.594
- relative viability (NCI-H1792; first compound 2.53 µM): 0.446
- relative viability (NCI-H322M; first compound 0.08 µM): 0.526
- relative viability (NCI-H322M; first compound 0.253 µM): 0.546
- relative viability (NCI-H322M; first compound 0.8 µM): 0.566
- relative viability (NCI-H322M; first compound 2.53 µM): 0.675
- relative viability (NCI-H1666; first compound 0.08 µM): 0.852
- relative viability (NCI-H1666; first compound 0.253 µM): 0.864
- relative viability (NCI-H1666; first compound 0.8 µM): 0.838
- relative viability (NCI-H1666; first compound 2.53 µM): 0.78
- relative viability (LCLC-97TM1; first compound 0.08 µM): 0.269
- relative viability (LCLC-97TM1; first compound 0.253 µM): 0.186
- relative viability (LCLC-97TM1; first compound 0.8 µM): 0.15
- relative viability (LCLC-97TM1; first compound 2.53 µM): 0.235
- relative viability (NCI-H1915; first compound 0.08 µM): 0.692
- relative viability (NCI-H1915; first compound 0.8 µM): 0.675
- relative viability (NCI-H1915; first compound 2.53 µM): 0.644
- relative viability (NCI-H1651; first compound 0.08 µM): 0.506
- relative viability (NCI-H1651; first compound 0.253 µM): 0.406
- relative viability (NCI-H1651; first compound 0.8 µM): 0.454
- relative viability (NCI-H1651; first compound 2.53 µM): 0.459
- relative viability (LK-2; first compound 0.08 µM): 0.436
- relative viability (LK-2; first compound 0.253 µM): 0.421
- relative viability (LK-2; first compound 2.53 µM): 0.393
- relative viability (NCI-H2085; first compound 0.08 µM): 1.02
- relative viability (NCI-H2085; first compound 0.253 µM): 0.77
- relative viability (NCI-H2085; first compound 0.8 µM): 0.901
- relative viability (NCI-H2085; first compound 2.53 µM): 1.05
- relative viability (H3255; first compound 0.08 µM): 0.996
- relative viability (H3255; first compound 0.253 µM): 0.887
- relative viability (H3255; first compound 0.8 µM): 0.879
- relative viability (H3255; first compound 2.53 µM): 0.888
- relative viability (ABC-1; first compound 0.253 µM): 0.772
- relative viability (ABC-1; first compound 0.8 µM): 0.771
- relative viability (ABC-1; first compound 2.53 µM): 0.862
- relative viability (CAL-12T; first compound 0.08 µM): 0.586
- relative viability (CAL-12T; first compound 0.253 µM): 0.567
- relative viability (CAL-12T; first compound 0.8 µM): 0.544
- relative viability (CAL-12T; first compound 2.53 µM): 0.693
- relative viability (NCI-H838; first compound 0.08 µM): 0.973
- relative viability (NCI-H838; first compound 0.253 µM): 0.919
- relative viability (NCI-H838; first compound 0.8 µM): 0.941
- relative viability (NCI-H838; first compound 2.53 µM): 0.983
- relative viability (NCI-H358; first compound 0.08 µM): 0.529
- relative viability (NCI-H358; first compound 0.253 µM): 0.5
- relative viability (NCI-H358; first compound 0.8 µM): 0.478
- relative viability (NCI-H358; first compound 2.53 µM): 0.47
